From ChEMBL document CHEMBL5291721, “A preclinical secondary pharmacology resource illuminates target-adverse drug reaction associations of marketed drugs” (Nat Commun, 2023)

Key:
[1] = target: T1, Estrogen receptor (Homo sapiens, UniProt P03372)
T1 sequence (P03372 whole entry): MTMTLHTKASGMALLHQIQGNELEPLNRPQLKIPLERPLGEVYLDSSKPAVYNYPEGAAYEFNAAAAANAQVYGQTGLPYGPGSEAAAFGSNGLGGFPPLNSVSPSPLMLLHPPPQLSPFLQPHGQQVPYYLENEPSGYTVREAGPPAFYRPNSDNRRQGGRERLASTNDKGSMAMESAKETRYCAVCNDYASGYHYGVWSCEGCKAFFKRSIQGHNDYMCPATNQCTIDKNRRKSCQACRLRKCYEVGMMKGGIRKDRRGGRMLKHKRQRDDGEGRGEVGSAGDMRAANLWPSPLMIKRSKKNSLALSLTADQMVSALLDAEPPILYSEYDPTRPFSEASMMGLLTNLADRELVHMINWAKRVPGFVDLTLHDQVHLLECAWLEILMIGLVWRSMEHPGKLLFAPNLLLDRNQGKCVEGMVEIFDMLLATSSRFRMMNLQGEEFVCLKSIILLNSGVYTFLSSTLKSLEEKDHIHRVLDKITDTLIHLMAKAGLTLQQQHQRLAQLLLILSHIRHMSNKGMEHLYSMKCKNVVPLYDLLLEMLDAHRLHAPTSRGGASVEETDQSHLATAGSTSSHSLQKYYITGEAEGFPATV

[2] = target: Histamine H2 receptor (Homo sapiens, UniProt P25021); assay type: functional, cell-based
Chain of Histamine H2 receptor (P25021 whole entry): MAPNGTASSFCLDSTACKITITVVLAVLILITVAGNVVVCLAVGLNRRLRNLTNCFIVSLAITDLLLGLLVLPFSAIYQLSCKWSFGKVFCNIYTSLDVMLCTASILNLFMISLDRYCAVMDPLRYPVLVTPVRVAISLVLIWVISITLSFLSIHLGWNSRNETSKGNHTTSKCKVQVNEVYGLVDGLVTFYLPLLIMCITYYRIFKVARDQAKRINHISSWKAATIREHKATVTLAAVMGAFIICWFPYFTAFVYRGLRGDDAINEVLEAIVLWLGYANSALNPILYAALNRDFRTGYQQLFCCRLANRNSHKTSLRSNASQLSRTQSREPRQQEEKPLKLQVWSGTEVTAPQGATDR

[3] = target: Sodium-dependent dopamine transporter (Homo sapiens, UniProt Q01959)
Chain of Sodium-dependent dopamine transporter (Q01959 whole entry): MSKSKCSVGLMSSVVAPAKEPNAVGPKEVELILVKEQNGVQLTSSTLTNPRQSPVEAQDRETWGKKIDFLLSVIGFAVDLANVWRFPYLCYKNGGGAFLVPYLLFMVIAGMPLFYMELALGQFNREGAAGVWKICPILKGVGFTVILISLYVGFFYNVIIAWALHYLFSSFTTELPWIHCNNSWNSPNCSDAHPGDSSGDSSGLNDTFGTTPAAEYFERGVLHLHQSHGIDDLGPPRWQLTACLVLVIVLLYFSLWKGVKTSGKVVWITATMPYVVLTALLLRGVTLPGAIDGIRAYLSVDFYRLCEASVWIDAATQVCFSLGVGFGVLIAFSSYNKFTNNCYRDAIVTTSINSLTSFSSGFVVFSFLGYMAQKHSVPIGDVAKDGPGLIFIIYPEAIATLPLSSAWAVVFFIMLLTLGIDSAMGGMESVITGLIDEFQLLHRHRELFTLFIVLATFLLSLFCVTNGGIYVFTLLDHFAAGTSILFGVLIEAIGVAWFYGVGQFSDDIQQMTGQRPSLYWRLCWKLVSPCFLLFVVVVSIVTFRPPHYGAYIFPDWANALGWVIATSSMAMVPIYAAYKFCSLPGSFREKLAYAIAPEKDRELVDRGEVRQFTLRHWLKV

[4] = target: Beta-2 adrenergic receptor (Homo sapiens, UniProt P07550)
Chain of Beta-2 adrenergic receptor (P07550 whole entry): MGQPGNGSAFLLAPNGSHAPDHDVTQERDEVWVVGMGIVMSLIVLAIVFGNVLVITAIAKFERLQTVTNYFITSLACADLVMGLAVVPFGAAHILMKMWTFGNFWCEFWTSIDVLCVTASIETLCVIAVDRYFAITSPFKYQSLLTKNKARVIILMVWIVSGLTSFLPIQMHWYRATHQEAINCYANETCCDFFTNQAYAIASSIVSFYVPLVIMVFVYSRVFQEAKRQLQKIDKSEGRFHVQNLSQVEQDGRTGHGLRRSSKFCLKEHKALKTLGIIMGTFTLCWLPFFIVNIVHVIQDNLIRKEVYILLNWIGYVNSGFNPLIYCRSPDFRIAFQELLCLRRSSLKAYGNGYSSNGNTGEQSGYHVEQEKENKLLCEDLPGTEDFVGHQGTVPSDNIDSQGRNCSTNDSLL

[5] = target: cGMP-inhibited 3',5'-cyclic phosphodiesterase 3A (Homo sapiens, UniProt Q14432); assay type: functional
Chain of cGMP-inhibited 3',5'-cyclic phosphodiesterase 3A (Q14432 whole entry): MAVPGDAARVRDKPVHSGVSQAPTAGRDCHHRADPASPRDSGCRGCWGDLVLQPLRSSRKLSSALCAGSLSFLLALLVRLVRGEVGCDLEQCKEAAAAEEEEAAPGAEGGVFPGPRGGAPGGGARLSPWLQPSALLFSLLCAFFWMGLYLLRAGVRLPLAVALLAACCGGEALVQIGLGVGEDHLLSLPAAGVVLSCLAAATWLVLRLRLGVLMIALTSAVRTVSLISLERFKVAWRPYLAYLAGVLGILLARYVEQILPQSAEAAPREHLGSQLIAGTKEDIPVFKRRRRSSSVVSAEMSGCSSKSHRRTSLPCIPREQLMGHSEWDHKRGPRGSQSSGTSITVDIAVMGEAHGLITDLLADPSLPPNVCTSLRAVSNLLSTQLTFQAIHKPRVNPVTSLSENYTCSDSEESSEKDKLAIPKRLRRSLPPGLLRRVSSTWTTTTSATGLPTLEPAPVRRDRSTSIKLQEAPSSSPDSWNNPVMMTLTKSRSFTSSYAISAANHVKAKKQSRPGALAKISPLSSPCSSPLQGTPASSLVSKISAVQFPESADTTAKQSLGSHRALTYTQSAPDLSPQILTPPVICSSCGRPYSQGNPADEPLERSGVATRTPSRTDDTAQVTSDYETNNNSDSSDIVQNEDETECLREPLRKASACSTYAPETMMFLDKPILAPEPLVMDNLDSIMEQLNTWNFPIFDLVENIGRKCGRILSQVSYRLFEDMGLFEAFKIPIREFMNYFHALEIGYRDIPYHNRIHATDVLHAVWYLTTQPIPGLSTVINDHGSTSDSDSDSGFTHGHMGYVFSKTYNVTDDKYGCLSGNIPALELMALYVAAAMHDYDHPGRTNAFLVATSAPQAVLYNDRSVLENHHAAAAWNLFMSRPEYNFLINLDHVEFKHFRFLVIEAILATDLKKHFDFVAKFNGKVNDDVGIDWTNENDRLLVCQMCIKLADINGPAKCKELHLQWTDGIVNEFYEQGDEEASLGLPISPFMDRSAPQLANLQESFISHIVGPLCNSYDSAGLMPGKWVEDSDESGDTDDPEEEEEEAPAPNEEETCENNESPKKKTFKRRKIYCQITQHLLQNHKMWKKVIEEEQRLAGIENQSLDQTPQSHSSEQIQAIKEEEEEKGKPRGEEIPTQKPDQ

[6] = target: Sodium-dependent noradrenaline transporter (Homo sapiens, UniProt P23975)
Chain of Sodium-dependent noradrenaline transporter (P23975 whole entry): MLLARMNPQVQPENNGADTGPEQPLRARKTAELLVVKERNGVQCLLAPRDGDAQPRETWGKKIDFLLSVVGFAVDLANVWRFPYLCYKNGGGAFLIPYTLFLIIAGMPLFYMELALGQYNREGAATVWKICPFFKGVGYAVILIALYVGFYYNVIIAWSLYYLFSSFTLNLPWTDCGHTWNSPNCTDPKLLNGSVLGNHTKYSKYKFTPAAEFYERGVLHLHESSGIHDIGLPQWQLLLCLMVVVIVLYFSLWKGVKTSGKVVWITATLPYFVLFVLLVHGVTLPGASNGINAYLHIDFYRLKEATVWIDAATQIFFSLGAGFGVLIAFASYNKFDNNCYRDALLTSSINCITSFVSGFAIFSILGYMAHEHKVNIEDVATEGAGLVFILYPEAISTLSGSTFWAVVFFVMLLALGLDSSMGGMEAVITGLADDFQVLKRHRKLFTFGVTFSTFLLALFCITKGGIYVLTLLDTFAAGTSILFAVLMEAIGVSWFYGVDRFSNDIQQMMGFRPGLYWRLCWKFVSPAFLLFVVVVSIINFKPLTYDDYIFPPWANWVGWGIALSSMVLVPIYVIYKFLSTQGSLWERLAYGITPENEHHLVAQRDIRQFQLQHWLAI

[7] = target: T2, B2 bradykinin receptor (Homo sapiens, UniProt P30411)
T2 sequence (P30411 whole entry): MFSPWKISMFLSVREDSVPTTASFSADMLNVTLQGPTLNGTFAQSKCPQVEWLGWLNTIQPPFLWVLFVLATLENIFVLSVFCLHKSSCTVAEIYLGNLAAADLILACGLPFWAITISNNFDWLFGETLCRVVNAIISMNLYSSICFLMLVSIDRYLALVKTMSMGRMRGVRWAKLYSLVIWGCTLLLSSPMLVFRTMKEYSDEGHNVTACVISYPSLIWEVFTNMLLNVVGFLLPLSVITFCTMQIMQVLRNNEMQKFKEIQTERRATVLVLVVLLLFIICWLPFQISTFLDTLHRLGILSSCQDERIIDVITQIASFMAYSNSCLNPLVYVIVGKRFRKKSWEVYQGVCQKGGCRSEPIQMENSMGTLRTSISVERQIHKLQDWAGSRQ

[8] = target: T3, Alpha-2A adrenergic receptor (Homo sapiens, UniProt P08913); assay type: functional, cell-based
T3 sequence (P08913 whole entry): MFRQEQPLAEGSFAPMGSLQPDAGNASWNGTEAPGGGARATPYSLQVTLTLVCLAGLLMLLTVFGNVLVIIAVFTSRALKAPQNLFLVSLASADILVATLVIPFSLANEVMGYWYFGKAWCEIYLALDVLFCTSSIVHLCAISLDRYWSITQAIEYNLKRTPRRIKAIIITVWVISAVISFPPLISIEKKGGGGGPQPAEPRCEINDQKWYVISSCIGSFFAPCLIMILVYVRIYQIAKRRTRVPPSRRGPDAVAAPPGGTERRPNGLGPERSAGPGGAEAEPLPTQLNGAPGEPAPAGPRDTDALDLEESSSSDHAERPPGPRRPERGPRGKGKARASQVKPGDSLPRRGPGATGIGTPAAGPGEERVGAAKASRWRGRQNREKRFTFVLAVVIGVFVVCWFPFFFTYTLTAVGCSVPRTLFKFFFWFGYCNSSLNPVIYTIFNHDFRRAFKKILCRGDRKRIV

[9] = target: T4, Amine oxidase [flavin-containing] A (Homo sapiens, UniProt P21397); assay type: functional
T4 sequence (P21397 whole entry): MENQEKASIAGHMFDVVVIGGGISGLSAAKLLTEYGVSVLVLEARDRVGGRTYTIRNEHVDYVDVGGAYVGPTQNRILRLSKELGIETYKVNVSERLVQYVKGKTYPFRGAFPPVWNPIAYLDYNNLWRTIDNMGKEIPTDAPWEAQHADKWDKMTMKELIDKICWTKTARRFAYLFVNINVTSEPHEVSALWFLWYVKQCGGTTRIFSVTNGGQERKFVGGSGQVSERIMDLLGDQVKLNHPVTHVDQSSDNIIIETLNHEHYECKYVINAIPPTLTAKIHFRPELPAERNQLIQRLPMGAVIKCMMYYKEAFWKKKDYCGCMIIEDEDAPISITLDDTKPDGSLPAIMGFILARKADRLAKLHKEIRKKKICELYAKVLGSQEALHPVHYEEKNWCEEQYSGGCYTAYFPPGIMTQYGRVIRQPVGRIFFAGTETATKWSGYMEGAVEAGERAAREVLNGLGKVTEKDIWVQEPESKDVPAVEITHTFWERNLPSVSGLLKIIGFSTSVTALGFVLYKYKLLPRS

[10] = target: Adenosine receptor A2a (Homo sapiens, UniProt P29274)
Chain of Adenosine receptor A2a (P29274 whole entry): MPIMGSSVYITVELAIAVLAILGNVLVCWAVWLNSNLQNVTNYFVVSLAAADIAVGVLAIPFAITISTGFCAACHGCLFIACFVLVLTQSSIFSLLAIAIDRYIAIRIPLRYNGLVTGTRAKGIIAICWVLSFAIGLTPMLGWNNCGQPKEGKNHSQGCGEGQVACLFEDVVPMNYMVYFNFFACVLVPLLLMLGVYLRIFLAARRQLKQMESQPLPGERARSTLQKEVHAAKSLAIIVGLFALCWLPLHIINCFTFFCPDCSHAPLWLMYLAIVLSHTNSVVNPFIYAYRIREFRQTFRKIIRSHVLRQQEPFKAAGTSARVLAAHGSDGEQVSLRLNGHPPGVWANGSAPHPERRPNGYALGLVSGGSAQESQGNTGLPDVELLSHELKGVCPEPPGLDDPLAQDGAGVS

[11] = target: Motilin receptor (Homo sapiens, UniProt O43193)
Chain of Motilin receptor (O43193 whole entry): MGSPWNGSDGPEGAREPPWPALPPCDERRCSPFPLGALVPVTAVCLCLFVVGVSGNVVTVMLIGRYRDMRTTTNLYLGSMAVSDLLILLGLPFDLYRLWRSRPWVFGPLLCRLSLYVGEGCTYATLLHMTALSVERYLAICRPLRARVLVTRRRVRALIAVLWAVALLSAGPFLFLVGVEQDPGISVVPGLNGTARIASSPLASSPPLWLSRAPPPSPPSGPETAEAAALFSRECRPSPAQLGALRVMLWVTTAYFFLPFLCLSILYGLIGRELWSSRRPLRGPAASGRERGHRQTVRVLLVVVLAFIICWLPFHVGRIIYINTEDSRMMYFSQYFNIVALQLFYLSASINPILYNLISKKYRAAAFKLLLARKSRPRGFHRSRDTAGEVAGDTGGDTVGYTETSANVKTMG

[12] = target: T5, 5-hydroxytryptamine receptor 2C (Homo sapiens, UniProt P28335)
T5 sequence (P28335 whole entry): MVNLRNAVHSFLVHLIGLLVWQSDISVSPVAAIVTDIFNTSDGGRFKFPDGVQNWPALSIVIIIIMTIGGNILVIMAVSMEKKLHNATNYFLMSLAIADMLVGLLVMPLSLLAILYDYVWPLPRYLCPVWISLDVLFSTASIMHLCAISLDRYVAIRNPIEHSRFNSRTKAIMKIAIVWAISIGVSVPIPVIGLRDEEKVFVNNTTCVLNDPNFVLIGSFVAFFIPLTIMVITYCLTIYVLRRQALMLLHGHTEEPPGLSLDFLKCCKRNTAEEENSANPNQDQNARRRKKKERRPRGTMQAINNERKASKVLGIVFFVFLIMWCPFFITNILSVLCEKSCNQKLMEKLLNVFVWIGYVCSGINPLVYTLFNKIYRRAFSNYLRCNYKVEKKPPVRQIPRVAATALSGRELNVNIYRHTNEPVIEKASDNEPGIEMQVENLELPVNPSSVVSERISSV
Also: assay procedure not described here.

| Compound | AC50 [1] [µM] | AC50 [2] [µM] | AC50 [3] [µM] | AC50 [4] [µM] | AC50 [5] [µM] | AC50 [6] [µM] | AC50 [7] [µM] | AC50 [8] [µM] | AC50 [9] [µM] | AC50 [10] [µM] | AC50 [11] [µM] | AC50 [12] [µM] |
| --- | --- | --- | --- | --- | --- | --- | --- | --- | --- | --- | --- | --- |
| COc1ccc2cccc(CCNC(C)=O)c2c1 [AGOMELATINE] | > 30 | > 30 | > 10 | > 10 | > 30 | > 10 | > 30 | > 30 | > 10 | > 30 | > 10 | – |
| CCCCCOC(=O)Nc1nc(=O)n([C@@H]2O[C@H](C)[C@@H](O)[C@H]2O)cc1F [CAPECITABINE] | > 30 | > 30 | > 30 | – | > 30 | > 30 | > 30 | > 30 | > 30 | > 30 | > 30 | > 30 |
| CCOc1cc(N)c([N+](=O)[O-])cc1C(=O)NC1CCN(CC2CC=CCC2)CC1 (stereo not drawn) [CINITAPRIDE] | > 30 | > 30 | 20 | 16 | > 30 | 24 | > 30 | > 30 | > 30 | > 30 | 8.1 | – |
| COC(=O)[C@H]1[C@@H](OC(=O)c2ccccc2)C[C@@H]2CC[C@H]1N2C [COCAINE] | > 30 | > 30 | – | > 30 | > 30 | – | > 30 | > 30 | 19 | > 30 | > 30 | > 30 |
| CCCCCCCCCCCC[N+](C)(C)CCOc1ccccc1 [DOMIPHEN] | 5 | > 30 | 2.5 | 15 | > 30 | 1.4 | > 30 | – | 28 | > 30 | 3 | 1.1 |
| CCNC(C)Cc1cccc(C(F)(F)F)c1 (stereo not drawn) [FENFLURAMINE] | > 30 | – | – | – | > 30 | – | > 30 | – | > 10 | > 30 | > 10 | – |
| O=C1CN=C(c2ccccc2)c2cc(Cl)ccc2N1CC(F)(F)F [HALAZEPAM] | > 30 | > 30 | > 30 | – | > 30 | > 30 | > 30 | > 30 | > 30 | > 30 | > 30 | – |
| Cc1cccc(C)c1NC(=O)C1CCCCN1C (stereo not drawn) [MEPIVACAINE] | > 30 | > 30 | > 30 | – | > 30 | > 30 | > 30 | > 30 | > 30 | > 30 | > 30 | > 30 |
| NC(=O)C[S+]([O-])C(c1ccccc1)c1ccccc1 (stereo not drawn) [MODAFINIL] | > 30 | > 10 | – | > 10 | > 30 | > 10 | > 30 | > 10 | > 10 | > 30 | > 10 | > 30 |
| CCCCCCC(C)(C)c1cc(O)c2c(c1)OC(C)(C)C1CCC(=O)CC21 (stereo not drawn) [NABILONE] | > 30 | > 30 | 16 | – | > 30 | > 30 | > 10 | > 30 | > 30 | > 30 | > 30 | > 30 |
| CCCCCCCCOc1ccccc1C(=O)Nc1ccc(C(=O)OCC[N+](C)(CC)CC)cc1 [OTILONIUM BROMIDE] | > 30 | > 30 | 4.4 | 11 | 20 | 3.3 | > 30 | – | > 30 | 5.3 | 5.7 | 1.1 |
| CN1C(=O)CC(c2ccccc2)C1=O (stereo not drawn) [PHENSUXIMIDE] | – | > 10 | > 10 | > 10 | > 30 | > 10 | > 10 | > 10 | > 10 | > 10 | > 10 | > 30 |
| CCN(CC)CCOC(=O)c1ccc(N)cc1 [PROCAINE] | – | > 10 | > 30 | > 10 | > 10 | > 30 | > 30 | > 10 | 16 | > 30 | > 10 | > 30 |
| Cc1nc2ccc(CN(C)c3ccc(C(=O)N[C@@H](CCC(=O)O)C(=O)O)s3)cc2c(=O)[nH]1 [RALTITREXED] | – | > 30 | > 30 | > 30 | > 30 | > 30 | > 30 | > 30 | > 30 | > 30 | > 30 | > 30 |
| Nc1nc2ccc(OC(F)(F)F)cc2s1 [RILUZOLE] | > 30 | > 30 | > 30 | – | > 30 | 19 | > 30 | > 30 | > 30 | > 30 | > 30 | > 30 |
| Cc1c(C(=O)Nc2ccc(N3C[C@@H](C)O[C@@H](C)C3)nc2)cccc1-c1ccc(OC(F)(F)F)cc1 [SONIDEGIB] | > 30 | – | > 10 | > 10 | > 30 | > 10 | > 30 | – | – | > 30 | > 10 | > 30 |
| CN1CCN(C(=O)OC2c3nccnc3C(=O)N2c2ccc(Cl)cn2)CC1 (stereo not drawn) [ZOPICLONE] | – | > 10 | > 30 | > 10 | > 30 | > 30 | > 30 | > 10 | > 30 | > 30 | > 30 | > 10 |
